The numbers were not newly measured in PMC9098912, “Molecular basis for inhibiting human glucose transporters by exofacial inhibitors” (Nature Communications, 2022), which cites them from elsewhere.

Molecules are shown by their SMILES. “Also recorded” adds a separate entry of the source.

Data set [1] addresses T1, human glucose transporter GLUT1(N45T) (Homo sapiens, UniProt P11166, N45T).
T1 construct: made in house
T1 sequence (P11166 1-492 N45T): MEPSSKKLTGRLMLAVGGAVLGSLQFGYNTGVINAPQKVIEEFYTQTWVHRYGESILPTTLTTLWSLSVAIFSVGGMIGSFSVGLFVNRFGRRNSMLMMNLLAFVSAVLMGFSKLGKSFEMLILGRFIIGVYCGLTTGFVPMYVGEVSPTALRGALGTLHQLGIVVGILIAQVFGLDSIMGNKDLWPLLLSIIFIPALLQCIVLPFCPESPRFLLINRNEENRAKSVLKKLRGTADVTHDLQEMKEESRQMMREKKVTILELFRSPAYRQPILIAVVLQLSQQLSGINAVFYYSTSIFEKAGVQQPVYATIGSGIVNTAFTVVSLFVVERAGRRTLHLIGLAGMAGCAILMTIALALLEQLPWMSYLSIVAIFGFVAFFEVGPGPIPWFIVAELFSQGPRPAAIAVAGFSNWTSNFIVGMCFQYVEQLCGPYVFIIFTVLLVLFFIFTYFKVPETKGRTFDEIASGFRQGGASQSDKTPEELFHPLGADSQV
The conditions noted are these: 50 mM maltose, cited from earlier work.

Data set [2] addresses T2, human GLUT3(N43T) (Homo sapiens, UniProt P11169, N43T).
T2 construct: His10 (N); made in house; host or cells: Sf9 insect cells (baculovirus)
T2 sequence (P11169 1-496 N43T): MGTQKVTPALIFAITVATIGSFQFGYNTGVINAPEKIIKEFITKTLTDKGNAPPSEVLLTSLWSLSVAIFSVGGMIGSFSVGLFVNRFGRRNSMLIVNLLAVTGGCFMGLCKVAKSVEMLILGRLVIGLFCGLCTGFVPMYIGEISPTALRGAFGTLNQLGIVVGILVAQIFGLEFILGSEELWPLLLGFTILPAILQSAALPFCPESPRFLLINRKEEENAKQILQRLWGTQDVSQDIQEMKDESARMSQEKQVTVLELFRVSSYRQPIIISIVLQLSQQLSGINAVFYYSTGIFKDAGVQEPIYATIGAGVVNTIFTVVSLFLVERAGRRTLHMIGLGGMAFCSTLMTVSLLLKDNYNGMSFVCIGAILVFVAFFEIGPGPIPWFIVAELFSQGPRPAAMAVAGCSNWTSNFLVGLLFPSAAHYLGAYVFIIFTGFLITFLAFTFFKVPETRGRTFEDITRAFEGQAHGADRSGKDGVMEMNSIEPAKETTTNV
The following applies: 50 mM maltose, cited from earlier work.

In data set [3] the test system is GLUT3. Also noted: method as in PMID 12792024. The following applies: cited from earlier work.
The test system of data set [4] is GLUT1. More on the design: method as in Siebeneicher et al., 2016. The following applies: SAR of Bayer compounds; ref Siebeneicher et al., 2016; cited from earlier work.
The test system of data set [5] is GLUT1/3 over GLUT2. More on the design: method as in Siebeneicher et al., 2016. The conditions noted are these: ref Siebeneicher et al., 2016; cited from earlier work.

Regarding `OC[C@H]1O[C@H](O[C@H]2[C@H](O)[C@@H](O)C(O)O[C@@H]2CO)[C@H](O)[C@@H](O)[C@@H]1O` (mixture of isomers) [maltose], the “Inhibition of glucose transport” value in data set [1] (ref 18 (Deng et al., 2015)) is given as “could not be completely blocked; also recorded: cannot completely inhibit”; in data set [2] (ref 18 (Deng et al., 2015)) it was “could not be completely blocked; also recorded: cannot completely inhibit”. The Preserved transport activity entry in data set [1] (ref Deng et al., 2015) is recorded as “one third”; in data set [2] (ref Deng et al., 2015), “one quarter”.
`C=CCCCCCCCCCO[C@H]1[C@H](O)[C@@H](CO)OC(O)[C@@H]1O` (stereo partly shown) [C3361]: the “GLUT3 inhibition” value in data set [3] is reported as “weak inhibitor”.
For `COc1ccc(F)cc1N1CCN(c2ncnc3c2cnn3-c2ccccc2)CC1` [cmpd 15], the “GLUT1 potency” value in data set [4] is reported as “favors GLUT1 association”. For the same molecule, in data set [5], the “Selectivity” value is on record as “selective inhibition to GLUT1/3 over GLUT2”.
